From patent US7718394B2, “Methods for diagnosis and monitoring of neurological disease by detection of an encephalotoxin” (priority 2003, dated 2010)
Entries after “also recorded” stand apart in the source; their conditions may differ.

Experiment: Inactivation of encephalotoxin by nitrous acid, heparin lyases and sulfatases (loss of neurotoxic activity)
Format: biochemical
Protocol: Structural characterization and inactivation of encephalotoxin (isolated by organic extractions, gel filtration, and sequential C18 HPLC from Aβ-stimulated microglial cell line BV2) was performed by various nitrous acid cleavage protocols. […] Traditionally, heparin lyase I acts primarily on heparin-containing GlcNS(1→4)IdoA2S sequences and heparin lyase III on HS primarily at a GlcNAc(1→4)IdoA or GlcNAc(1→4)GlcA sequence.
1 ml of CSF was fractionated by adsorption chromatography, dried under vacuum, and reconstituted in artificial CSF comprising electrolytes, such as NaCl, and glucose. Increasing amounts of fractionated toxin (range 0.1 to 500 ul equivalents of original sample volume) were added to triplicate cultures. Results were plotted as volume vs. % neuron kill (with kill calculated as % loss of immuno-stained hippocampal neurons against untreated control cultures). […] In order to compare different populations, a CSF Neurotoxicity Index was developed to assign scores that reflect level of neurotoxin. This index was calculated as an ED50 (the equivalent CSF volume that yields 50% of the maximal level of neuron killing).

O=NO [nitrous acid]
inactivation of encephalotoxin released by BV2 microglia (encephalotoxin from Aβ-stimulated microglial cell line BV2, FIG. 1A): inactivated; also recorded: eliminated
inactivation of encephalotoxin recovered from lumbar CSF of subject with AD (lumbar CSF, AD, FIG. 1C): inactivated
inactivation of encephalotoxin found in ventricular CSF of AD brain (ventricular CSF of AD brain, FIG. 1B): inactivated
